Experiment [1] deals with Human immunodeficiency virus 1. Briefly: Antiviral activity against HIV1 3B infected in human MT2 cells. In kind it is functional, organism-based. Particulars: Human immunodeficiency virus 1, 3B.
Another experiment has as its system C2C12. Briefly: Increase in glucose consumption in mouse C2C12 cells assessed as improved glucose transformation. In kind it is functional, cell-based.
The subject of a further experiment is Pyricularia oryzae. Briefly: Antimicrobial activity against Pyricularia oryzae P-2b. The experiment is classed as functional.

Values after ≈ are worked out from the molar mass of the structure shown.

As for `C=C1CC[C@@H](O)[C@]2(C)CC[C@H](C(C)C)[C@@H](O)[C@H]12`, the half-inhibitory concentration (IC50) in experiment [1] was 10 µg/mL (≈ 42 µM). In the case of `C=C1CC[C@@H](O)[C@]2(C)CC[C@@H](C(C)C)C[C@@]12O`, the IC50 in the experiment on C2C12 is 10.7 µg/mL (≈ 44.9 µM). For the same molecule, in the experiment on Pyricularia oryzae, the minimum inhibitory concentration (MIC) came out at 20 µg/mL (≈ 83.9 µM). For `C=C1CC[C@@H](O)[C@]2(C)CC[C@](O)(C(C)C)C[C@@H]12`, in the experiment on Pyricularia oryzae, the MIC was found to be 16 µg/mL (≈ 67.1 µM). The same measure, in the same setting: the result for `C=C1CC[C@@H](O)[C@]2(C)CC[C@@](O)(C(C)C)C[C@@H]12` reads 12 µg/mL (≈ 50.3 µM).

(Values after ChEMBL document CHEMBL1148963, “Four new eudesmanes from Caragana intermedia and their biological activities” (J Nat Prod, 2004).)
